In PMC9945177, “Nature-Derived Epoxy Resin Monomers with Reduced Sensitizing Capacity—Isosorbide-Based Bis-Epoxides” (Chemical Research in Toxicology, 2023):

Legend:
[1] = thermogravimetric analysis (TGA) of polymers formed with TETA; type: physicochemical; settings: polymer cured with TETA, TGA under nitrogen
Procedure: Detailed information on the polymerization procedure and the thermogravimetric analysis (TGA) is given in the Supporting Information.
Pilot experiments using TGA were conducted to investigate the properties of the polymers formed from isosorbide bis-epoxides 1–3 and the commonly used curing agent TETA (Table 2 and Figure 6). The onset of degradation is described by the initial decomposition temperature (IDT) and is an indication of the thermal stability of the cured epoxy resins. The maximum weight loss rate (Rmax) and the temperature (Tmax) at Rmax were taken from the peak values of the thermograms. The activation energies (Ea) for the decomposition of the polymers were calculated from the thermograms based on the Horowitz–Metzger equation.[43],[44]

[2] = skin permeability, static Franz diffusion cells; type: in vitro ADME, pig; settings: for permeation of epidermis: 6 h experiment, donor 0.1 mg/mL; for recovery at 6 h, 0.1 mg/mL: pig; for recovery at 6 h, 0.1 mg/mL / amount in receptor fluid after 6 h (%) / amount on/in skin (%) / recovery (%): w/w %; for recovery at 6 h, 0.1 mg/mL / recovery (%): sum of receptor compartment after 6 h and overnight skin extraction; for amount on/in skin (%): overnight skin extraction after 6 h
Procedure: For the permeability experiments, ultra-performance liquid chromatography-electrospray ionization tandem mass spectroscopy (UPLC)-ESI-MS/MS analysis was carried out using a Xevo TQ-S micro triple quadrupole mass spectrometer equipped with an electrospray interface and coupled to an Acquity UPLC H-Class Plus system from Waters. Separation was achieved on an ACE Excel C18-PFP column (75 × 2.1 mm, 1.7 μm) from Advanced Chromatography Technologies Ltd. (Aberdeen, Scotland). Mobile phase A consisted of 0.1% formic acid and 5% acetonitrile in water, whereas mobile phase B consisted of 0.1% formic acid and 5% water in acetonitrile. The gradient program used was as follows: 20% B (0–2 min), 20–80% B (2–9 min), 80–95% B (9–9.1 min), 95% B (9.1–12 min), 95–20% B (12–12.1 min), 20% B (12.1–15 min). The flow rate was set to 0.3 mL/min and the injection volume was 2 μL. Analysis was performed in positive ionization mode using a Multiple Reaction Monitoring (MRM) method. The optimal parameters were capillary voltage 1.5 (kV), desolvation temperature 650 °C, desolvation gas 850 L/h, and cone 100 L/h.
The Franz diffusion cell experiment was based on the OECD Test Guidelines.[35] Static Franz diffusion cells equipped with pig ex vivo epidermis were used to assess the permeability of isosorbide bis-epoxides 2 and 3. Freshly cut pig ears were received frozen and stored at −20 °C until used for permeability assessment. One day before the experiment, the ears were transferred at +4 °C and allowed to thaw. The ears were then washed, shaved, and carefully cut with a Watson Dermatome skin graft knife to obtain 0.1 mm pieces of the epidermis layer. The integrity of the skin (transparent and intact) was determined by ocular inspection. Thereafter, the epidermis layer was cut and positioned between the donor and receptor compartment of each Franz cell. The receptor compartments were filled with 5 mL of ethanol/PBS (1:1) and equipped with a small magnetic stir bar to ensure mixing while maintaining a constant temperature of the circulating water at 37 °C. To equilibrate the skin, the upper chamber was filled with 0.5 mL of ethanol/PBS (1:1) which was later removed and replaced with the donor solution (50 μL) containing either 2 or 3 (0.1 mg/mL) or DGEBA (0.1 mg/mL) used as a positive control. A procedural blank containing only 50 μL of ethanol/PBS (1:1) in the donor compartment was also included in the experimental setup. Samples of 100 μL were collected after 0–2 min, 1, 2, 3, 4, 5, and 6 h. At each timepoint, a sample aliquot was removed and 100 μL of ethanol/PBS (1:1) was added to the receptor compartment to keep the volume constant. After 6 h, the skin from each Franz cell was extracted overnight in 5 mL of ethanol/PBS (1,1). Triplicate experiments were performed for each compound. The obtained samples were analyzed with UPLC-ESI-MS/MS (see Figure S2 for parameters) and quantification was based on external calibration curves. The limit of quantification (LOQ) was determined by the analysis of the analyte at low concentration and was calculated as 10 times the signal-to-noise ratio.

[3] = Extract: skin extracted overnight after 6 h

SMILES: O=C(OC1COC2C(OC(=O)c3ccc(CC4CO4)cc3)COC12)c1ccc(CC2CO2)cc1 [Compound 2, (3R,3aR,6S,6aR)-3,6-O-Bis[4-(3,4-epoxypropyl)benzoyl]-1,4:3,6-dianhydro-D-glucitol]
- Ea (activation energy for the decomposition of the cured epoxy resins) [1]: 15.8 kcal/mol
- IDT (initial decomposition temperature) [1]: 361 °C
- Rmax (maximum weight loss rate) [1]: –0.373 %/°C
- Tmax (temperature at the maximum rate of weight loss) [1]: 411 °C
- permeation of epidermis [2]: observed
- Average (µM) [2, 3]: 0.345 µM
- Average (µg/ml) [2, 3]: 0.161 µg/mL
- Replicate 1 [2, 3]: 0.203 µg/mL
- Replicate 2 [2, 3]: 0.139 µg/mL
- Replicate 3 [2, 3]: 0.141 µg/mL
- recovery at 6 h, 0.1 mg/mL [2]: 48%
- Average (µM) ([2]; receptor fluid, timepoint 0 h): 0 µM
- Average (µg/ml) ([2]; receptor fluid, timepoint 0 h): 0 µg/mL
- Replicate 1 (µg/ml) ([2]; receptor fluid, timepoint 0 h): < LOQ
- Replicate 2 (µg/ml) ([2]; receptor fluid, timepoint 0 h): < LOQ
- Replicate 3 (µg/ml) ([2]; receptor fluid, timepoint 0 h): < LOQ
- Average (µM) ([2]; receptor fluid, timepoint 1 h): 0.123 µM
- Average (µg/ml) ([2]; receptor fluid, timepoint 1 h): 0.0574 µg/mL
- Replicate 1 ([2]; receptor fluid, timepoint 1 h): 0.0637 µg/mL
- Replicate 2 ([2]; receptor fluid, timepoint 1 h): 0.0511 µg/mL
- Average (µM) ([2]; receptor fluid, timepoint 2 h): 0.490 µM
- Average (µg/ml) ([2]; receptor fluid, timepoint 2 h): 0.228 µg/mL
- Replicate 1 ([2]; receptor fluid, timepoint 2 h): 0.299 µg/mL
- Replicate 2 ([2]; receptor fluid, timepoint 2 h): 0.233 µg/mL
- Replicate 3 ([2]; receptor fluid, timepoint 2 h): 0.154 µg/mL
- Average (µM) ([2]; receptor fluid, timepoint 3 h): 0.669 µM
- Average (µg/ml) ([2]; receptor fluid, timepoint 3 h): 0.312 µg/mL
- Replicate 1 ([2]; receptor fluid, timepoint 3 h): 0.437 µg/mL
- Replicate 2 ([2]; receptor fluid, timepoint 3 h): 0.320 µg/mL
- Replicate 3 ([2]; receptor fluid, timepoint 3 h): 0.180 µg/mL
- Average (µM) ([2]; receptor fluid, timepoint 4 h): 0.796 µM
- Average (µg/ml) ([2]; receptor fluid, timepoint 4 h): 0.371 µg/mL
- Replicate 1 ([2]; receptor fluid, timepoint 4 h): 0.538 µg/mL
- Replicate 2 ([2]; receptor fluid, timepoint 4 h): 0.362 µg/mL
- Replicate 3 ([2]; receptor fluid, timepoint 4 h): 0.213 µg/mL
- Average (µM) ([2]; receptor fluid, timepoint 5 h): 0.721 µM
- Average (µg/ml) ([2]; receptor fluid, timepoint 5 h): 0.336 µg/mL
- Replicate 1 ([2]; receptor fluid, timepoint 5 h): 0.500 µg/mL
- Replicate 2 ([2]; receptor fluid, timepoint 5 h): 0.323 µg/mL
- Replicate 3 ([2]; receptor fluid, timepoint 5 h): 0.186 µg/mL
- Average (µM) ([2]; receptor fluid, timepoint 6 h): 0.679 µM
- Average (µg/ml) ([2]; receptor fluid, timepoint 6 h): 0.317 µg/mL
- Replicate 1 ([2]; receptor fluid, timepoint 6 h): 0.474 µg/mL
- Replicate 2 ([2]; receptor fluid, timepoint 6 h): 0.309 µg/mL
- Replicate 3 ([2]; receptor fluid, timepoint 6 h): 0.166 µg/mL
- amount in receptor fluid after 6 h (%) [2]: 31.7 ± 12.6%
- amount on/in skin (%) [2]: 16.1 ± 3.0%
- recovery (%) [2]: 47.7 ± 15.6%

SMILES: c1cc(CC2CO2)ccc1CO[C@H]1CO[C@H]2[C@@H]1OC[C@H]2OCc1ccc(CC2CO2)cc1 (stereo partly drawn) [Compound 3, (3R,3aR,6S,6aR)-3,6-O-Bis[4-(3,4-epoxypropyl)benzyl]-1,4:3,6-dianhydro-D-glucitol]
- Ea (activation energy for the decomposition of the cured epoxy resins) [1]: 18.2 kcal/mol
- IDT (initial decomposition temperature) [1]: 329 °C
- Rmax (maximum weight loss rate) [1]: –0.722 %/°C
- Tmax (temperature at the maximum rate of weight loss) [1]: 382 °C
- permeation of epidermis [2]: observed
- Average (µM) [2, 3]: 0.0736 µM
- Average (µg/ml) [2, 3]: 0.0323 µg/mL
- Replicate 1 [2, 3]: 0.0650 µg/mL
- Replicate 2 [2, 3]: 0.000965 µg/mL
- Replicate 3 [2, 3]: 0.0309 µg/mL
- recovery at 6 h, 0.1 mg/mL [2]: 25%
- Average (µM) ([2]; receptor fluid, timepoint 0 h): 0 µM
- Average (µg/ml) ([2]; receptor fluid, timepoint 0 h): 0 µg/mL
- Replicate 1 (µg/ml) ([2]; receptor fluid, timepoint 0 h): < LOQ
- Replicate 2 (µg/ml) ([2]; receptor fluid, timepoint 0 h): < LOQ
- Replicate 3 (µg/ml) ([2]; receptor fluid, timepoint 0 h): < LOQ
- Average (µM) ([2]; receptor fluid, timepoint 1 h): 0.187 µM
- Average (µg/ml) ([2]; receptor fluid, timepoint 1 h): 0.0818 µg/mL
- Replicate 1 ([2]; receptor fluid, timepoint 1 h): 0.0897 µg/mL
- Replicate 2 ([2]; receptor fluid, timepoint 1 h): 0.110 µg/mL
- Replicate 3 ([2]; receptor fluid, timepoint 1 h): 0.0460 µg/mL
- Average (µM) ([2]; receptor fluid, timepoint 2 h): 0.465 µM
- Average (µg/ml) ([2]; receptor fluid, timepoint 2 h): 0.204 µg/mL
- Replicate 1 ([2]; receptor fluid, timepoint 2 h): 0.139 µg/mL
- Replicate 2 ([2]; receptor fluid, timepoint 2 h): 0.292 µg/mL
- Replicate 3 ([2]; receptor fluid, timepoint 2 h): 0.180 µg/mL
- Average (µM) ([2]; receptor fluid, timepoint 3 h): 0.563 µM
- Average (µg/ml) ([2]; receptor fluid, timepoint 3 h): 0.247 µg/mL
- Replicate 1 ([2]; receptor fluid, timepoint 3 h): 0.191 µg/mL
- Replicate 2 ([2]; receptor fluid, timepoint 3 h): 0.347 µg/mL
- Replicate 3 ([2]; receptor fluid, timepoint 3 h): 0.203 µg/mL
- Average (µM) ([2]; receptor fluid, timepoint 4 h): 0.542 µM
- Average (µg/ml) ([2]; receptor fluid, timepoint 4 h): 0.238 µg/mL
- Replicate 1 ([2]; receptor fluid, timepoint 4 h): 0.202 µg/mL
- Replicate 2 ([2]; receptor fluid, timepoint 4 h): 0.309 µg/mL
- Replicate 3 ([2]; receptor fluid, timepoint 4 h): 0.203 µg/mL
- Average (µM) ([2]; receptor fluid, timepoint 5 h): 0.539 µM
- Average (µg/ml) ([2]; receptor fluid, timepoint 5 h): 0.236 µg/mL
- Replicate 1 ([2]; receptor fluid, timepoint 5 h): 0.204 µg/mL
- Replicate 2 ([2]; receptor fluid, timepoint 5 h): 0.306 µg/mL
- Replicate 3 ([2]; receptor fluid, timepoint 5 h): 0.198 µg/mL
- Average (µM) ([2]; receptor fluid, timepoint 6 h): 0.495 µM
- Average (µg/ml) ([2]; receptor fluid, timepoint 6 h): 0.217 µg/mL
- Replicate 1 ([2]; receptor fluid, timepoint 6 h): 0.165 µg/mL
- Replicate 2 ([2]; receptor fluid, timepoint 6 h): 0.298 µg/mL
- Replicate 3 ([2]; receptor fluid, timepoint 6 h): 0.189 µg/mL
- amount in receptor fluid after 6 h (%) [2]: 21.7 ± 5.8%
- amount on/in skin (%) [2]: 3.2 ± 2.6%
- recovery (%) [2]: 24.9 ± 8.4%
